How the values were obtained:
Assay in all cases: relative viability (nuclei count vs DMSO), 5 days (fraction); higher = more cells survive
AZD5582 + Trametinib = compound: C[C@@H](C(=O)N[C@@H](C1CCCCC1)C(=O)N2CCC[C@H]2C(=O)N[C@@H]3[C@@H](CC4=CC=CC=C34)OCC#CC#CCO[C@@H]5CC6=CC=CC=C6[C@@H]5NC(=O)[C@@H]7CCCN7C(=O)[C@H](C8CCCCC8)NC(=O)[C@H](C)NC)NC [AZD5582] + CC(=O)Nc1cccc(-n2c(=O)n(C3CC3)c(=O)c3c(Nc4ccc(I)cc4F)n(C)c(=O)c(C)c32)c1 [Trametinib] (partner 0.02 µM)
Summary of the method: (§1)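 Relative viability was taken as the ratio of nuclei in treated wells to nuclei in vehicle wells. Lung cancer cell lines in 1536-well plates received compounds by pin tool one day after seeding, either one drug alone or a fixed anchor-drug dose plus five library-drug doses (not always all listed) in √10 steps. Nuclei were counted on 4× images after 5 days of treatment, and values are medians of duplicate plates.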

AZD5582 + Phenformin = compound: C[C@@H](C(=O)N[C@@H](C1CCCCC1)C(=O)N2CCC[C@H]2C(=O)N[C@@H]3[C@@H](CC4=CC=CC=C34)OCC#CC#CCO[C@@H]5CC6=CC=CC=C6[C@@H]5NC(=O)[C@@H]7CCCN7C(=O)[C@H](C8CCCCC8)NC(=O)[C@H](C)NC)NC [AZD5582] + N=C(N)NC(=N)NCCc1ccccc1 [Phenformin] (partner 250 µM)
Summary of the method: as §1

AZD5582 + Decitabine = compound: C[C@@H](C(=O)N[C@@H](C1CCCCC1)C(=O)N2CCC[C@H]2C(=O)N[C@@H]3[C@@H](CC4=CC=CC=C34)OCC#CC#CCO[C@@H]5CC6=CC=CC=C6[C@@H]5NC(=O)[C@@H]7CCCN7C(=O)[C@H](C8CCCCC8)NC(=O)[C@H](C)NC)NC [AZD5582] + Nc1ncn([C@H]2C[C@H](O)[C@@H](CO)O2)c(=O)n1 [Decitabine] (partner 2 µM)
Summary of the method: as §1

[1] = compound: Cn1nnc2c(C(N)=O)ncn2c1=O [Temozolomide] + CC1(C)CCC(c2ccc(Cl)cc2)=C(CN2CCN(c3ccc(C(=O)NS(=O)(=O)c4ccc(N[C@H](CCN5CCOCC5)CSc5ccccc5)c(S(=O)(=O)C(F)(F)F)c4)cc3)CC2)C1 [Navitoclax] (partner 0.5 µM)
Summary of the method: as §1

| Cell Line | relative viability (AZD5582 + Trametinib; first compound 0.001581 µM) | relative viability (AZD5582 + Trametinib; first compound 0.005 µM) | relative viability (AZD5582 + Trametinib; first compound 0.01581 µM) | relative viability (AZD5582 + Trametinib; first compound 0.05 µM) | relative viability (AZD5582 + Phenformin; first compound 0.001581 µM) | relative viability (AZD5582 + Phenformin; first compound 0.005 µM) | relative viability (AZD5582 + Phenformin; first compound 0.01581 µM) | relative viability (AZD5582 + Phenformin; first compound 0.05 µM) | relative viability (AZD5582 + Decitabine; first compound 0.001581 µM) | relative viability (AZD5582 + Decitabine; first compound 0.005 µM) | relative viability (AZD5582 + Decitabine; first compound 0.01581 µM) | relative viability (AZD5582 + Decitabine; first compound 0.05 µM) | relative viability ([1]; first compound 0.2 µM) | relative viability ([1]; first compound 0.6325 µM) | relative viability ([1]; first compound 2 µM) | relative viability ([1]; first compound 6.325 µM) | relative viability ([1]; first compound 20 µM) |
| --- | --- | --- | --- | --- | --- | --- | --- | --- | --- | --- | --- | --- | --- | --- | --- | --- | --- |
| EMC-BAC-2 | 0.757 | 0.841 | 0.737 | 0.797 | 0.405 | 0.508 | 0.418 | 0.335 | 0.892 | 0.97 | 0.887 | 0.841 | 1.07 | 1.24 | 1.16 | 1.2 | 1.2 |
| NCI-H1651 | 0.751 | 0.847 | 0.8 | 0.946 | 0.353 | 0.339 | – | 0.435 | 0.572 | 0.571 | 0.559 | 0.654 | 1.15 | 1.01 | 1.07 | 0.958 | 1 |
| HCC-827 | 0.538 | 0.611 | 0.515 | 0.589 | 0.391 | 0.383 | 0.368 | 0.387 | 0.281 | 0.292 | 0.348 | 0.308 | 1.07 | 1.07 | 0.992 | 0.984 | 0.129 |
| SW 1573 | 0.473 | 0.586 | 0.537 | 0.662 | 0.394 | 0.466 | 0.37 | 0.499 | 0.551 | 0.631 | 0.674 | 0.685 | 0.993 | 1.03 | 1.05 | 1 | 0.935 |
| NCI-H460 | 0.118 | 0.243 | 0.144 | 0.221 | 0.485 | 0.524 | 0.487 | 0.611 | 0.424 | 0.491 | 0.466 | 0.577 | 1.28 | 1.08 | 1.22 | 1.22 | 1.18 |
| NCI-H1648 | 0.38 | 0.511 | – | 0.412 | – | – | – | – | 0.502 | 0.528 | – | 0.466 | – | – | – | – | – |
| NCI-H647 | 0.417 | 0.477 | 0.443 | 0.47 | 0.47 | 0.504 | 0.456 | 0.459 | 0.426 | 0.366 | 0.417 | 0.331 | 1.16 | 1.24 | 1.24 | 0.73 | 0.291 |
| NCI-H322M | 0.561 | 0.62 | 0.496 | 0.68 | 0.776 | 0.996 | – | 0.872 | 0.762 | 0.739 | 0.652 | 0.737 | – | 1.36 | 1.28 | 1.21 | 0.967 |
| NCI-H2342 | 0.792 | 0.922 | 0.693 | 0.932 | 0.551 | 0.556 | 0.528 | 0.634 | 0.692 | 0.835 | 0.698 | 0.702 | – | – | – | – | – |
| CAL-12T | 0.31 | 0.34 | 0.291 | 0.216 | 0.354 | 0.27 | 0.408 | 0.222 | – | – | – | – | 1.35 | 1.13 | 1.21 | 1.29 | 1.26 |
| ABC-1 | – | – | – | – | 0.239 | 0.241 | 0.23 | 0.251 | 1.06 | 1.08 | 0.931 | 1.36 | – | – | – | – | – |
| IA-LM | – | – | – | – | – | – | – | – | – | – | – | – | 0.832 | 0.69 | 0.836 | 0.825 | 0.615 |
| NCI-H661 | 0.524 | 0.697 | 0.589 | 0.648 | 0.268 | 0.271 | 0.269 | 0.267 | 0.525 | 0.571 | 0.573 | 0.556 | – | – | – | – | – |
| SW 900 | 0.634 | 0.865 | 0.758 | 0.615 | 0.502 | 0.632 | 0.414 | 0.401 | 0.372 | 0.364 | 0.38 | 0.246 | – | – | – | – | – |
| Calu-6 | – | – | – | – | – | – | – | – | – | – | – | – | 0.927 | 0.804 | 0.942 | 0.82 | 0.781 |
| NCI-H1623 | – | – | – | – | 0.565 | 0.61 | 0.565 | 0.46 | – | – | – | – | – | – | – | – | – |
| LCLC-103H | 0.702 | 0.813 | 0.643 | 0.828 | 0.328 | 0.316 | 0.272 | 0.269 | 0.698 | 0.798 | 0.718 | 0.724 | – | – | – | – | – |
| NCI-H358 | 0.156 | 0.157 | 0.142 | 0.147 | 0.366 | 0.374 | 0.399 | 0.313 | 0.199 | 0.241 | 0.245 | 0.215 | – | – | – | – | – |
| NCI-H1563 | – | – | – | – | 0.641 | 0.665 | 0.574 | 0.627 | – | – | – | – | – | – | – | – | – |
| NCI-H1299 | – | – | – | – | – | – | – | – | – | – | – | – | 1.04 | 1.09 | 1.06 | 1.01 | 1.08 |
| EBC-1 | – | – | – | – | – | – | – | – | – | – | – | – | 0.512 | 0.41 | 0.358 | 0.384 | 0.404 |
| A549 | – | – | – | – | 0.172 | 0.127 | 0.152 | 0.278 | 0.214 | 0.271 | 0.211 | 0.263 | 1.07 | 1.34 | 1.25 | 1.23 | 1.24 |
| NCI-H650 | 0.919 | 1.05 | 0.987 | 0.944 | 0.417 | 0.401 | 0.342 | 0.385 | 0.327 | 0.3 | 0.321 | 0.306 | – | – | – | – | – |
| NCI-H522 | 0.628 | 0.777 | 0.724 | 0.747 | 0.635 | 0.643 | 0.649 | 0.65 | 0.624 | 0.711 | 0.624 | 0.641 | – | – | – | – | – |
| NCI-H2228 | 0.529 | 0.434 | 0.714 | 0.161 | 0.335 | 0.296 | 0.321 | 0.0886 | – | – | – | – | 0.921 | 1.43 | 0.951 | 0.857 | 1.26 |
